In patent publication US20080153921A1, “Lycopene Formulations For the Treatment of Atherosclerotic Conditions” (CAMBRIDGE, priority 2005, published 2008):

Columns and labels:
[1] = system: lipid oxidising abzymes; assay: ELISA based abzyme assay; type: biochemical, human; conditions: in vitro
Procedure: ELISA assays were performed using Medac materials and reagents, which were used in accordance with the manufacturers instructions.
Briefly, serum samples from patients were treated as described above. 50 μl of sample diluent was pipetted into microtitre well A1 as blank, and 50 μl of the negative control, Positive Control and the diluted patients' samples were pipetted into other microtitre wells. The microplate wells were incubated for 60 min (±5 min) at 37 °C (±1° C.) in a humid chamber and then washed three times with 200 μl wash buffer per well. 50 μl of Conjugate was then added to each well and the microplate wells incubated again for 60 min (±5 min) at 37 °C (±1° C.) in a humid chamber and then washed. 50 μl of TMB-Substrate, was added to each well and the microplate wells incubated for 30 min (±2 min) at 37 °C (±1° C.) in a humid chamber. The reaction was stopped by adding 100 μl of Stop Solution, to each well.
Photometric reading was performed at 450 nm (ref. 620-650 nm) within 15 min after adding the Stop Solution.
To calculate the results, the OD value of the blank (well A1) was subtracted from all other OD values. Preferably, the OD value of the blank was <0.150, the mean OD value of the Negative Control was <0.100 and the OD value of the Positive Control was >0.800. Cut-off mean OD value of the Negative Control+0.380. Grey zone Cut-off±10%

[2] = system: lipid oxidising abzymes (atheroma extracted IgG); assay: Testing of anti-abzyme activity (lipid oxidation, MDA/thiobarbituric acid assay); type: biochemical, human
Procedure: Antibodies were extracted from advanced atherosclerotic lesions of human aorta retrieved from two male patients […], during bypass surgery of an abdominal aortal stenosis at the Centre of Cardio-Vascular Surgery of the Medical University of Rostov-na-Donu, Russian Federation. After recovery these samples were immediately put in 30% w/v solution of NaCl and stored at 0-4° C. for 1 month prior to examination. […]
The antibodies were extracted and analysed separately from the lesions of the two pieces of the abdominal aorta obtained from the […] different patients. […]
Samples of the human serum were incubated with different concentrations of lycopene, lycopene/lactoprotein conjugate or alone (control samples) with the presence of atheroma extracted IgG for 16 hours at 37° C. at pH 5.6. The level of lipid peroxidation was assessed as a level of MDA concentration which was measured by spectrophotometric method [Draper, H. H. et al Free Radic. […] Briefly, the level of abzymes in a sample was determined as follows: Samples of sera were diluted 1:1 by 0.05M acetate buffer pH 4.0 to make the final pH of these samples between 5.6-5.8. […] The supernatants were collected and their absorption measured at λ 525 nm to determine the concentration of malondialdehydes (MDA), which are products of lipid peroxidation.

Question: For `CC(C)=CCC/C(C)=C/C=C/C(C)=C/C=C/C(C)=C/C=C/C=C(C)/C=C/C=C(C)/C=C/C=C(\C)CCC=C(C)C` [Lycopene], which abzyme inhibition activity [1] is on record?
Answer: The abzyme inhibition activity was “ineffective”.

Question: And the “Maximum inhibition in vitro” value ([2]; abzyme inhibition)?
Answer: The value was 0%.

Question: What about the abzyme inhibition activity ([2]; lipid oxidation assay, in vitro) of the same compound?
Answer: The abzyme inhibition activity was “ineffective”.
